Assay results published in patent US8461174B2, “Treatment for cutaneous metastases” (3M Innovative Properties Company, priority 2004, dated 2013).

Columns and labels:
[1] = test system: cutaneous metastasis of Her2/neu-positive breast cancer (invasive lobular tumor cells); assay: Topical treatment of cutaneous metastasis of breast cancer in a patient (Example 1); assay type: in vivo, human; settings: person one
Protocol: (§1) The IRM compound used in the examples is 1-(2-methylpropyl)-1H-imidazo[4,5-c]quinolin-4-amine, formulated as a 5% cream available under the tradename ALDARA (3M Co., St. Paul, Minn.).
person one with breast cancer (UICC stage pT1c, pN1b1, M0, G2, estrogen-positive, progesterone-positive) developed an axillary recurrence and osteolytic metastases (L2-4) despite axillary dissection and neoadjuvant and adjuvant chemotherapy. The recurrent tumor and metastases were treated with radiation. Nine months later, the breast cancer recurred locally (rpT1c, M1, G2, estrogen-negative, progesterone-negative, Her2/neu-positive) and was treated with trastuzumab and percutaneous radiation. An inflammatory erythema occurred on the upper back (FIG. 1A). On histology, invasive lobular tumor cells (keratin-positive, Her2/neu-positive, ICAM-1-positive) were present (FIGS. 1B-1E.
(§2) 1-(2-methylpropyl)-1H-imidazo[4,5-c]quinolin-4-amine was administered topically five times per week for six months.

[2] = test system: cutaneous metastasis of invasive ductal carcinoma (Her2/neu-negative); assay: Topical treatment of cutaneous metastasis of invasive ductal carcinoma in a patient (Example 2); assay type: in vivo, human; settings: person two; 5% cream (ALDARA) topically five times per week for six months
Protocol: as §1
person two with invasive ductal carcinoma (UICC stage T2, pN1, B2, cM0) that was estrogen-negative, progesterone-negative, and Her2/neu-negative was treated by mastectomy and adjuvant chemotherapy. Infraclavicular and supraclavicular recurrences were treated with γ- and telecobalt radiation, intrarterial and intravenous chemotherapy. A diffuse cutaneous lesion occurred on the scapula that, upon histological examination, contained an infiltrative ductal growth pattern (FIG. 1I).
as §2

## CC(C)Cn1cnc2c(N)nc3ccccc3c21 [1-(2-methylpropyl)-1H-imidazo[4,5-c]quinolin-4-amine]
[1]; 5% cream (ALDARA) topically five times per week for six months
  skin lesions upon gross examination or histological examination after the treatment period: no skin lesions were detected
[1]; after topical treatment five times per week for six months
  time the patient has remained free of cutaneous metastasis: more than ten months
[2]
  skin biopsy of an affected area after the treatment period: free of carcinoma cells
